In ChEMBL document CHEMBL5108050, “Discovery of a New Class of Uracil Derivatives as Potential Mixed Lineage Kinase Domain-like Protein (MLKL) Inhibitors” (J Med Chem, 2022):
pEC50: −log10 of the molar value.

Experiments:
HT-29 = assay: Anti-necroptic activity in human HT-29 cells assessed as inhibition of TSZ (TNFalpha, Smac mimetic and z-VAD-FMK) induced necroptosis incubated for 24 hrs by celltiter-glo luminescent cell viability assay; type: functional, cell-based; conditions: HT-29, 24 h
[1] = target: T1, Receptor-interacting serine/threonine-protein kinase 1 (Homo sapiens) (UniProt Q13546); assay: Inhibition of RIP1 (1 to 375 residues) (unknown origin) assessed as substrate phosphorylation using MBP and ATP as substrate at 10 uM preincubated for 15 mins followed by substrate addition and measured after 90 mins by ADP-Glo luminescence assay; values are per cent of control; conditions: time 105.0 min
T1 sequence (whole entry): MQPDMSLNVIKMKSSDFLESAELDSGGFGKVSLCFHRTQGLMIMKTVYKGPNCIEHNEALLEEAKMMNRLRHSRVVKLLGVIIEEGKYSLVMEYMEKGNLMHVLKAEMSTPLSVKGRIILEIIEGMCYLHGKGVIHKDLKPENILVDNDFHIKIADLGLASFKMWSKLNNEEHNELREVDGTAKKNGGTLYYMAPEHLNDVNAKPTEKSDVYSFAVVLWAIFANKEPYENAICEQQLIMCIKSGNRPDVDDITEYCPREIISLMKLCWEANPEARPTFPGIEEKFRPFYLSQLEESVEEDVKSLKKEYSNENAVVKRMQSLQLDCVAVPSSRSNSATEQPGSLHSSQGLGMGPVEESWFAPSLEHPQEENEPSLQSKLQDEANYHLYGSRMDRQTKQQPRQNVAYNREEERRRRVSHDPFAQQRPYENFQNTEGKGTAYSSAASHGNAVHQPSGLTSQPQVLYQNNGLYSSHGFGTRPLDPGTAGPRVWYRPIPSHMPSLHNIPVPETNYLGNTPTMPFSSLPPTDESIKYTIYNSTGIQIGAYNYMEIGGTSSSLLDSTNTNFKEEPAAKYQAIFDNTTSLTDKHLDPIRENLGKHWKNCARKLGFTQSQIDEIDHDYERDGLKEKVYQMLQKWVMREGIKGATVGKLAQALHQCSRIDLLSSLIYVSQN

[2] = target: T1, Receptor-interacting serine/threonine-protein kinase 1 (Homo sapiens); assay: Inhibition of RIP1 (1 to 375 residues) (unknown origin) assessed as substrate phosphorylation using MBP and ATP as substrate at 1 uM preincubated for 15 mins followed by substrate addition and measured after 90 mins by ADP-Glo luminescence assay; values are per cent of control; conditions: time 105.0 min
[3] = target: Receptor-interacting serine/threonine-protein kinase 3 (Homo sapiens) (UniProt Q9Y572); assay: Inhibition of full length RIP3 (unknown origin) assessed as substrate phosphorylation using MBP and ATP as substrate at 1 uM preincubated for 15 mins followed by substrate addition and measured after 90 mins by ADP-Glo luminescence assay; values are per cent of control; conditions: time 105.0 min
Chain of Receptor-interacting serine/threonine-protein kinase 3 (Homo sapiens) (Q9Y572 whole entry, looked up): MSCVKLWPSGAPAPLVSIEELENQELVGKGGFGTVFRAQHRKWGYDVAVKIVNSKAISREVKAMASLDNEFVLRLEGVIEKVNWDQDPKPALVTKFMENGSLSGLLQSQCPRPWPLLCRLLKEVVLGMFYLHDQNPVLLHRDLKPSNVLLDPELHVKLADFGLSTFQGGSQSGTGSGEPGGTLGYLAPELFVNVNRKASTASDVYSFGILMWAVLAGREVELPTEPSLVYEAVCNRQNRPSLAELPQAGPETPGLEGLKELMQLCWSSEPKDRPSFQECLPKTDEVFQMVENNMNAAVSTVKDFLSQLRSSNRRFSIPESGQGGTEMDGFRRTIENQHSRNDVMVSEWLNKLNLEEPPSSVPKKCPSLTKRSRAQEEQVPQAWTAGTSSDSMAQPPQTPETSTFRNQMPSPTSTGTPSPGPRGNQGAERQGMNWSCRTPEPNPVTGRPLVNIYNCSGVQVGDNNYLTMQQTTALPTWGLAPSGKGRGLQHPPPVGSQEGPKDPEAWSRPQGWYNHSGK

[4] = target: Receptor-interacting serine/threonine-protein kinase 3 (Homo sapiens) (UniProt Q9Y572); assay: Inhibition of full length RIP3 (unknown origin) assessed as substrate phosphorylation using MBP and ATP as substrate at 10 uM preincubated for 15 mins followed by substrate addition and measured after 90 mins by ADP-Glo luminescence assay; values are per cent of control; conditions: time 105.0 min

SMILES | pEC50 (HT-29) | other results
C=CS(=O)(=O)Nc1c(C)n(CC#Cc2cccc(O)c2)c(=O)n(C)c1=O | < 5.00 | –
Cn1c(=O)c(NC(=O)Cc2ccccc2F)c(Cl)n(CC#Cc2cccc(O)c2)c1=O | 5.47 | –
CCn1c(=O)c(NC(=O)CCc2ccc(C)cc2)c(Cl)n(CC#Cc2ccc(O)cc2)c1=O | 5.65 | –
C=CC(=O)Nc1cn(CC#Cc2cccc(O)c2)c(=O)n(C)c1=O | < 5.00 | –
C=CC(=O)Nc1c(OC)n(CC#Cc2cccc(O)c2)c(=O)n(C)c1=O | < 5.00 | –
C=CS(=O)(=O)Nc1cn(CC#Cc2cccc(O)c2)c(=O)n(C)c1=O | 5.61 | –
Cc1ccc(CCC(=O)Nc2c(Cl)n(CC#Cc3cccc(Cn4c(C)cccc4=O)c3)c(=O)n(C)c2=O)cc1 | 6.91 | –
Cn1c(=O)c(NC(=O)CCc2cccc(F)c2)c(Cl)n(CC#Cc2cccc(O)c2)c1=O | 5.20 | –
C=CS(=O)(=O)Nc1c(OC)n(CC#Cc2cccc(O)c2)c(=O)n(C)c1=O | < 5.00 | –
Cn1c(=O)c(NC(=O)CCc2ccccc2)c(Cl)n(CC#Cc2cccc(O)c2)c1=O | 5.97 | –
COc1ccc(C#CCn2c(Cl)c(NC(=O)CCc3ccc(C)cc3)c(=O)n(C)c2=O)cc1Cn1cccc(OC)c1=O | 7.07 | residual activity [1]: 101%; residual activity [2]: 111%; residual activity [3]: 96.3%; residual activity [4]: 99.3%
Cc1ccc(CCC(=O)Nc2c(Cl)n(CC#Cc3ccc(O)cc3)c(=O)n(C)c2=O)cc1 | 6.65 | residual activity [1]: 96.1%; residual activity [2]: 92.1%; residual activity [3]: 90.5%; residual activity [4]: 102%
COc1cccn(Cc2cc(C#CCn3c(Cl)c(NC(=O)CCc4ccc(C)cc4)c(=O)n(C)c3=O)ccc2Cl)c1=O | 7.05 | –
Cc1ccc(CCC(=O)Nc2c(Cl)n(CC#Cc3cccc(Cn4ccc(C)cc4=O)c3)c(=O)n(C)c2=O)cc1 | 6.97 | –
Cn1c(=O)c(NC(=O)CCc2ccc(Cl)cc2)c(Cl)n(CC#Cc2cccc(O)c2)c1=O | 6.27 | –
C#CCn1c(Cl)c(NC(=O)CCc2ccc(C)cc2)c(=O)n(C)c1=O | 5.14 | –
Cc1ccc(CCC(=O)Nc2c(Cl)n(CC#Cc3ccc(O)cc3)c(=O)n(CC3CCCC3)c2=O)cc1 | < 5.00 | –
Cc1ccc(CCC(=O)Nc2c(Cl)n(CC#Cc3cccc(Cn4ccccc4=O)c3)c(=O)n(C)c2=O)cc1 | 6.87 | –
COc1cccn(Cc2cc(C#CCn3c(Cl)c(NC(=O)CCc4ccc(C)cc4)c(=O)n(C)c3=O)ccc2F)c1=O | 7.04 | –
Cn1c(=O)c(NC(=O)CCCc2ccccc2)c(Cl)n(CC#Cc2cccc(O)c2)c1=O | < 5.00 | –
CCCn1c(=O)c(NC(=O)CCc2ccc(C)cc2)c(Cl)n(CC#Cc2ccc(O)cc2)c1=O | 5.99 | –
COc1ccc(CC(=O)Nc2c(Cl)n(CC#Cc3cccc(O)c3)c(=O)n(C)c2=O)cc1 | 5.85 | –

SMILES | pEC50 (HT-29) | other results
Cc1ccc(CCC(=O)Nc2c(Cl)n(CC#Cc3cccc(NC(=O)c4ccccc4)c3)c(=O)n(C)c2=O)cc1 | 6.00 | –
Cc1ccc(CCC(=O)Nc2c(Cl)n(CC#Cc3ccc4cc[nH]c4c3)c(=O)n(C)c2=O)cc1 | 6.14 | –
Cc1ccc(CCC(=O)Nc2c(Cl)n(CC#Cc3cccc(N)c3)c(=O)n(C)c2=O)cc1 | 5.98 | –
Cc1ccc(CCC(=O)Nc2c(Cl)n(CC#Cc3cccc(Cn4cccc(C)c4=O)c3)c(=O)n(C)c2=O)cc1 | 6.87 | –
CC(=O)Nc1ccc(C#CCn2c(Cl)c(NC(=O)CCc3ccc(C)cc3)c(=O)n(C)c2=O)cc1 | 6.14 | –
Cc1ccc(CCC(=O)Nc2c(Cl)n(CC#Cc3ccc4c(c3)CCC(=O)N4C)c(=O)n(C)c2=O)cc1 | 6.55 | –
Cn1c(=O)c(NC(=O)c2ccccc2)c(Cl)n(CC#Cc2cccc(O)c2)c1=O | < 5.00 | –
Cc1ccc(C(=O)Nc2ccc(CN3CCN(C)CC3)c(C(F)(F)F)c2)cc1C#Cc1cnc2cccnn12 [PONATINIB] | 6.36 | residual activity [1]: 0.4%; residual activity [2]: 3.8%; residual activity [3]: 0.97%; residual activity [4]: 0.31%
Cn1c(=O)c(NC(=O)/C=C/c2ccccc2)c(Cl)n(CC#Cc2cccc(O)c2)c1=O | < 5.00 | –
Cn1c(=O)c(NC(=O)CC(C)(C)C)c(Cl)n(CC#Cc2cccc(O)c2)c1=O | 5.28 | –
CCCCCCCC(=O)Nc1c(Cl)n(CC#Cc2cccc(O)c2)c(=O)n(C)c1=O | 5.63 | –
CCC(C)(C)C(=O)Nc1c(Cl)n(CC#Cc2cccc(O)c2)c(=O)n(C)c1=O | < 5.00 | –
CCc1ccc(CCC(=O)Nc2c(Cl)n(CC#Cc3cccc(O)c3)c(=O)n(C)c2=O)cc1 | 6.00 | –
Cn1c(=O)c(NC(=O)CCc2ccc(C#N)cc2)c(Cl)n(CC#Cc2cccc(O)c2)c1=O | 6.19 | –
Cc1ccc(CCC(=O)Nc2c(Cl)n(CC#Cc3ccccc3)c(=O)n(C)c2=O)cc1 | 5.70 | –
CCC(C)C(=O)Nc1c(Cl)n(CC#Cc2cccc(O)c2)c(=O)n(C)c1=O (stereo not given) | 5.76 | –
COc1ccc(C#CCn2c(Cl)c(NC(=O)CCc3ccc(C)cc3)c(=O)n(C)c2=O)cc1 | 5.47 | –
Cc1ccc(CCC(=O)Nc2c(Cl)n(CC#Cc3ccc(Cl)c(Cn4ccccc4=O)c3)c(=O)n(C)c2=O)cc1 | 6.96 | –
C=CC(=O)Nc1c(Cl)n(CC#Cc2cccc(O)c2)c(=O)n(C)c1=O | 6.02 | residual activity [1]: 86.2%; residual activity [2]: 84.2%; residual activity [3]: 102%; residual activity [4]: 108%
Cn1c(=O)c(NC(=O)Cc2ccccc2)c(Cl)n(CC#Cc2cccc(O)c2)c1=O | 5.83 | –
Cc1ccc(CCC(=O)Nc2c(Cl)n(CC#Cc3ccc4c(c3)CCC(=O)N4)c(=O)n(C)c2=O)cc1 | 6.88 | residual activity [1]: 94.5%; residual activity [2]: 109%; residual activity [3]: 102%; residual activity [4]: 90.5%
Cc1ccc(CCC(=O)Nc2c(Cl)n(CC#Cc3cccc(O)c3)c(=O)n(C)c2=O)cc1 | 6.50 | –

SMILES | pEC50 (HT-29) | other results
C=CS(=O)(=O)Nc1c(Cl)n(CC#Cc2cccc(O)c2)c(=O)n(C)c1=O | 5.25 | –
COc1cccn(Cc2cccc(C#CCn3c(Cl)c(NC(=O)CCc4ccc(C)cc4)c(=O)n(C)c3=O)c2)c1=O | 7.09 | –
CC(=O)Nc1cccc(C#CCn2c(Cl)c(NC(=O)CCc3ccc(C)cc3)c(=O)n(C)c2=O)c1 | 6.06 | –
COCCOCC(=O)Nc1c(Cl)n(CC#Cc2cccc(O)c2)c(=O)n(C)c1=O | 5.37 | –
Cc1ccc(CCC(=O)Nc2c(Cl)n(CC#Cc3ccc4[nH]ccc4c3)c(=O)n(C)c2=O)cc1 | 6.48 | –
C=CC(=O)Nc1c(C)n(CC#Cc2cccc(O)c2)c(=O)n(C)c1=O | < 5.00 | –
Cn1c(=O)c(NC(=O)CCc2ccccc2F)c(Cl)n(CC#Cc2cccc(O)c2)c1=O | 6.08 | –
Cn1c(=O)c(NC(=O)CCc2ccc(F)cc2)c(Cl)n(CC#Cc2cccc(O)c2)c1=O | 6.34 | –
Cc1ccc(CCC(=O)Nc2c(Cl)n(CC#Cc3ccc(F)c(Cn4ccccc4=O)c3)c(=O)n(C)c2=O)cc1 | 6.86 | –
Cc1ccc(CCC(=O)Nc2c(Cl)n(CC#Cc3ccc(N)cc3)c(=O)n(C)c2=O)cc1 | 5.99 | –
Cc1ccc(CCC(=O)Nc2c(Cl)n(CC#Cc3ccc(NC(=O)c4ccccc4)cc3)c(=O)n(C)c2=O)cc1 | 6.67 | –
Cc1ccc(CCC(=O)Nc2c(Cl)n(CC#Cc3ccc(NCc4ccccc4)cc3)c(=O)n(C)c2=O)cc1 | 5.70 | –
COc1ccc(C#CCn2c(Cl)c(NC(=O)CCc3ccc(C)cc3)c(=O)n(C)c2=O)cc1Cn1ccccc1=O | 7.07 | –
Cn1c(=O)c(NC(=O)Cc2cccc(F)c2)c(Cl)n(CC#Cc2cccc(O)c2)c1=O | 5.63 | –
Cn1c(=O)c(NC(=O)Cc2ccc(Cl)cc2)c(Cl)n(CC#Cc2cccc(O)c2)c1=O | 5.42 | –
Cc1ccc(CCC(=O)Nc2c(Cl)n(CC#Cc3ccc(Cn4ccccc4=O)cc3)c(=O)n(C)c2=O)cc1 | 6.77 | –
COc1ccn(Cc2cccc(C#CCn3c(Cl)c(NC(=O)CCc4ccc(C)cc4)c(=O)n(C)c3=O)c2)c(=O)c1 | 7.03 | –
Cc1ccc(CCC(=O)Nc2c(Cl)n(CC#Cc3cccc(Cn4cc(C)ccc4=O)c3)c(=O)n(C)c2=O)cc1 | 6.80 | –
Cn1c(=O)c(NC(=O)Cc2ccc(F)cc2)c(Cl)n(CC#Cc2cccc(O)c2)c1=O | 5.34 | –
CCC(=O)Nc1c(Cl)n(CC#Cc2cccc(O)c2)c(=O)n(C)c1=O | 5.47 | –
Cc1ccc(CCC(=O)Nc2c(Cl)n(CC#Cc3ccc4c(c3)CCC(=O)O4)c(=O)n(C)c2=O)cc1 | 6.95 | –
